# Reference: US20220064196A1, “EGFR Inhibitors, Compositions and Methods Thereof” (Betta Pharmaceuticals Co., Ltd., priority 2019, published 2022)
# Where two headings read alike, the source gives them in different places.
# How the values were obtained:
# [1] = Pharmacokinetic assay, oral administration; type: in vivo; settings: rat, male SD rats, plasma
# Method in brief: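 Male SD rats (n=3), dosed by oral gavage after overnight fast (≥12 h pre- to 4 h post-dose). Orbital plasma sampled 15 min–24 h, assayed by LC-MS/MS; parameters from non-compartmental analysis.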
# [2] = target: EGFR L858R/T790M/C797S (Homo sapiens, UniProt P00533, C797S/L858R/T790M); assay: Kinase assay (mobility shift), EGFR L858R/T790M/C797S; type: biochemical
# EGFR L858R/T790M/C797S, sequence (P00533 25-1210 T790M/C797S/L858R): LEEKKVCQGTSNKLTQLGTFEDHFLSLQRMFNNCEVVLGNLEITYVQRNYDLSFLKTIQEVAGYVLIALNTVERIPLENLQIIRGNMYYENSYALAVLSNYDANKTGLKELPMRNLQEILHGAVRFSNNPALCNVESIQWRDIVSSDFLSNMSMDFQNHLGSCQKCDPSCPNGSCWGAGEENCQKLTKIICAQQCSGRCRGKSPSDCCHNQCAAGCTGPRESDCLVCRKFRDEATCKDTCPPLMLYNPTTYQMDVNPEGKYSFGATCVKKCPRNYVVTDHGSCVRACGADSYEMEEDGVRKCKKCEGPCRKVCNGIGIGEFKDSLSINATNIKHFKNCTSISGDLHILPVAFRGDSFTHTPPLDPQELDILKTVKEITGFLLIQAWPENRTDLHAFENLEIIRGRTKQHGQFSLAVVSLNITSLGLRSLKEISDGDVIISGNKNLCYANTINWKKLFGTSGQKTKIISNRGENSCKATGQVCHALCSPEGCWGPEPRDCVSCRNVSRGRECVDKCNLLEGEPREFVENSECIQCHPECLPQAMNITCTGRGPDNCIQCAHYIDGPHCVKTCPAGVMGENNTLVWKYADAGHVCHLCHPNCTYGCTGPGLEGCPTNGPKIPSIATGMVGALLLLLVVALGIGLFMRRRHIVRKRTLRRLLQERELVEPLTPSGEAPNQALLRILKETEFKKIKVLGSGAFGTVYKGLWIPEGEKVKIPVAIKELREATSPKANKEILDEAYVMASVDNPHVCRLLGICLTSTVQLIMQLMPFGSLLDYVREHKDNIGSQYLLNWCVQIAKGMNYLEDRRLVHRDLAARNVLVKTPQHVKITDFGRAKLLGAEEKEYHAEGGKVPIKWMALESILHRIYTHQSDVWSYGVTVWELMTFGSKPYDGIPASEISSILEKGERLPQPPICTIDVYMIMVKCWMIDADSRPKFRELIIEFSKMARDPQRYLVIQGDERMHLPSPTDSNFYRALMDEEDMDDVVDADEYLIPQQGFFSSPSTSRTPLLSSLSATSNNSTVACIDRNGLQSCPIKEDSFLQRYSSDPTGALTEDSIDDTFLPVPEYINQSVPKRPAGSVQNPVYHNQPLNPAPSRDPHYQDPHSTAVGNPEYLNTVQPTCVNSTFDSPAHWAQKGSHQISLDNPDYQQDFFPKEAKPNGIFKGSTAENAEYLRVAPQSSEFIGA
# [3] = target: EGFR Del19/T790M/C797S (Homo sapiens, UniProt P00533, T790M/C797S, form not given); assay: Kinase assay (mobility shift), EGFR Del19/T790M/C797S; type: biochemical
# Experimental: (§1) Test 1 Kinase Assay for EGFR Del19/T790M/C797S and EGFR Wildtype
# (§2) Enzyme reaction protocol are as follows:
# (§3) 1. Preparing 1* Kinase buffer as followed.
# (§4) 2. Preparing Compound Concentration Gradient: Compounds were tested at a concentration of 300 nM, diluted to 100-fold final concentration in 100% DMSO solution in 96-well plates, and compounds were diluted 3 times with Precision, 10 concentrations. Each concentration of the compound was then further diluted to a 5-fold final concentration of the intermediate dilution solution using 1* Kinase buffer.
# (§5) 3.5 μL of each of the prepared intermediate dilution compounds was separately added to the compound wells of the 384-well plate, and each concentration was tested for duplicate wells; 5 μL of 5% DMSO was added to the negative control wells and the positive control wells, respectively.
# (§6) 4. 2.5-fold final concentration of the kinase solution was prepared using 1*Kinase buffer.
# (§7) 5. Add 10 μL of 2.5-fold final concentration of kinase solution to the compound well and positive control well; add 10 μL of 1*Kinase buffer to the negative control well.
# (§8) 6. Centrifuge at 1000 rpm for 30 seconds, shake the reaction plate and incubate for 10 minutes at room temperature.
# (§9) 7. A mixed solution of 2.5 times the final concentration of ATP and Kinase substrate (5-FAM-EEPLYWSFPAKKK-CONH2) was prepared using 1*Kinase buffer.
# (§10) 8. 10 μL of a 2.5-fold final concentration of a mixed solution of ATP and a substrate was added to initiate the reaction.
# (§11) 9. Centrifuge the 384-well plate at 1000 rpm for 30 seconds, mix by shaking, and incubate at room temperature for the corresponding time.
# (§12) 10. Add 30 μL of the stop solution to stop the kinase reaction, centrifuge at 1000 rpm for 30 seconds, and mix by shaking.
# (§13) 11. Read the conversion rate with Caliper EZ Reader.
# (§14) Convert conversion values to inhibition values:
# (§15) Percent inhibition 32 (max-conversion)/(max-min)*100.
# (§16) “max” stands for the mean value of the positive control well ratio; “min” stands for the mean value of the negative control well.
# (§17) Fit the data in log(inhibitor) vs. response Variable slope of GraphPad Prism 5 to obtain IC50 values.
# (§18) Equation used is: Y=Bottom+(Top-Bottom)/(1+(IC50/X)^HillSlope)
# [4] = target: EGFR WT (Homo sapiens, UniProt P00533); assay: Kinase assay (mobility shift), EGFR wildtype; type: biochemical; settings: top concentration 300 nM
# EGFR WT, sequence (P00533 25-1210): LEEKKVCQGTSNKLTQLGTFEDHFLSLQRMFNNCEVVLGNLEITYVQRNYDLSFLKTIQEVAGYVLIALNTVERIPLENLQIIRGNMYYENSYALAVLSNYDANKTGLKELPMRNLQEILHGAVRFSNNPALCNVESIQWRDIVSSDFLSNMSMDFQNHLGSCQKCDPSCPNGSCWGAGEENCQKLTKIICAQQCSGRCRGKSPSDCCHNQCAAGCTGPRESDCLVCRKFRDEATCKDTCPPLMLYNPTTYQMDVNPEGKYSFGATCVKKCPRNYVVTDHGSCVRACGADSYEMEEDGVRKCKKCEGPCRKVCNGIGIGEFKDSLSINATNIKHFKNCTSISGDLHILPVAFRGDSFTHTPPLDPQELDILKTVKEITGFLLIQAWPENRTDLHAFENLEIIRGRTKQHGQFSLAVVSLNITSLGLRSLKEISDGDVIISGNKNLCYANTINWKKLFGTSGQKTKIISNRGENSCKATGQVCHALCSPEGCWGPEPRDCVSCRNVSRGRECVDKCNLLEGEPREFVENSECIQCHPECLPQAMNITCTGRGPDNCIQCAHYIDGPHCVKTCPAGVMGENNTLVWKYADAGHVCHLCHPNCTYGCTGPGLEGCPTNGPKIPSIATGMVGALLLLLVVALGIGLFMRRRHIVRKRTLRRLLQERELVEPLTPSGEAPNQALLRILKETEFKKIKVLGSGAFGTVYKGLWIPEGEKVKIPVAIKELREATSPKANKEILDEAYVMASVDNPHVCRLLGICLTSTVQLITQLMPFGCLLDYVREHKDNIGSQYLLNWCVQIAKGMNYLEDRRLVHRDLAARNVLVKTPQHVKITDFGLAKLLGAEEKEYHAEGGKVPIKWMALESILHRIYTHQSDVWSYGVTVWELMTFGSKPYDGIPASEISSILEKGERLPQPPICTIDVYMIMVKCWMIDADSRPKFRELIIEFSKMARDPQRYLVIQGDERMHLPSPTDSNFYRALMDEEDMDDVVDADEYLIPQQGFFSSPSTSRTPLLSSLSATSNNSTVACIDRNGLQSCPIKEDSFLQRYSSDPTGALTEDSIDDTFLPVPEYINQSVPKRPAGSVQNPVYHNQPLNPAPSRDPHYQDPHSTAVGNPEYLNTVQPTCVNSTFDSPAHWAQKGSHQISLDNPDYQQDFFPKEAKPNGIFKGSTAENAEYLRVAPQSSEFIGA
# Experimental: as §1, §2, §3, §4, §5, §6, §7, §8, §9, §10, §11, §12, §13, §14, §15, §16, §17, §18
# [5] = system: A431 (WT); assay: A431 cells proliferation assay (CellTiter Glo); type: cell-based; settings: Homo sapiens, A-431; cell proliferation, 72 h
# Method in brief: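 Wild-type A431 cells seeded at 5000/well in DMEM/10% FBS were exposed 72 h at 37° C to compound at 10000 nM top, 3-fold down to 1.5 nM, in 0.5% DMSO. Viability by CellTiter-Glo luminescence; IC50 from four-parameter nonlinear regression.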
# [6] = target: Ba/F3-L858R/T790M/C797S (Homo sapiens, UniProt P00533, T790M/C797S/L858R, cells depend on it); assay: Ba/F3-L858R/T790M/C797S cells proliferation assay (CellTiter Glo); type: cell-based; settings: cell proliferation, 72 h, read-out: Ba/F3-L858R/T790M/C797S IC50
# Ba/F3-L858R/T790M/C797S, sequence (P00533 whole entry T790M/C797S/L858R): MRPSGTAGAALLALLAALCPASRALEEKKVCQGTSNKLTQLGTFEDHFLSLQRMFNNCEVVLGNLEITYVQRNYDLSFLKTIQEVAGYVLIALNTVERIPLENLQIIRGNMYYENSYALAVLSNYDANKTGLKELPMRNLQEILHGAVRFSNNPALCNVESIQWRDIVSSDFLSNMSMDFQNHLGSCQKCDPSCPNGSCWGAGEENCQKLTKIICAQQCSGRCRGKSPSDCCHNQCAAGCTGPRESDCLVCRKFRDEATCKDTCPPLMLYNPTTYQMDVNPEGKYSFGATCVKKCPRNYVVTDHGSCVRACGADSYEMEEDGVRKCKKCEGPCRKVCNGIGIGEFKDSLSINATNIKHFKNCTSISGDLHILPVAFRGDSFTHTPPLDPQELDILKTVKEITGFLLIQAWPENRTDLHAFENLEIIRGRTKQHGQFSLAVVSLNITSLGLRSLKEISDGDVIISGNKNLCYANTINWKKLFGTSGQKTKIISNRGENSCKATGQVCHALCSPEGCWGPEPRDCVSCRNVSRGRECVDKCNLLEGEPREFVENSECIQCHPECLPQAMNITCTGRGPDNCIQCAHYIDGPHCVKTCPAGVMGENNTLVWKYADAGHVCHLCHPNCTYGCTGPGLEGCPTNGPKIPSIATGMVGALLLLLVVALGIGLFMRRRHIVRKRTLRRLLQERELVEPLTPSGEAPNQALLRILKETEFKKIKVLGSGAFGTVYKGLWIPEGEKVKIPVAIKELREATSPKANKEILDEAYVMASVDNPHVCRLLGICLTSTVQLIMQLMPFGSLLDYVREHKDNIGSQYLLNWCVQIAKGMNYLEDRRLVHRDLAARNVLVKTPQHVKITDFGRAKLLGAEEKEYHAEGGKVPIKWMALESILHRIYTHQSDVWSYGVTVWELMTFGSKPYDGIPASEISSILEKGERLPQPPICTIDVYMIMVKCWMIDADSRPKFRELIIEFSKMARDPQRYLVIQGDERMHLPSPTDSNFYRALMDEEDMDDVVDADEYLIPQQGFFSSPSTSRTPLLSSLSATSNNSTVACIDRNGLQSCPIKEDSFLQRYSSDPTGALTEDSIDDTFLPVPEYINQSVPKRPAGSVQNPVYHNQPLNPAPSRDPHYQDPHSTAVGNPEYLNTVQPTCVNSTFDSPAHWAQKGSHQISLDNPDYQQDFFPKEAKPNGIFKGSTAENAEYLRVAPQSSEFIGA
# Method in brief: (§19)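 Ba/F3 cells carrying EGFR Del19/T790M/C797S or L858R/T790M/C797S seeded at 2000 cells/well and exposed 72 h at 37 °C to compound (1000 nM top, 3-fold series, 0.5% DMSO). Viability read by CellTiter-Glo luminescence; IC50 from four-parameter non-linear regression.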
# [7] = target: Ba/F3-Del19/T790M/C797S (Homo sapiens, UniProt P00533, T790M/C797S, cells depend on it, form not given); assay: Ba/F3-Del19/T790M/C797S cells proliferation assay (CellTiter Glo); type: cell-based; settings: cell proliferation, 72 h, read-out: Ba/F3-Del19/T790M/C797S IC50
# Ba/F3-Del19/T790M/C797S, sequence (P00533 with tags, fused parts or gaps DEL746-750/T790M/C797S, form open): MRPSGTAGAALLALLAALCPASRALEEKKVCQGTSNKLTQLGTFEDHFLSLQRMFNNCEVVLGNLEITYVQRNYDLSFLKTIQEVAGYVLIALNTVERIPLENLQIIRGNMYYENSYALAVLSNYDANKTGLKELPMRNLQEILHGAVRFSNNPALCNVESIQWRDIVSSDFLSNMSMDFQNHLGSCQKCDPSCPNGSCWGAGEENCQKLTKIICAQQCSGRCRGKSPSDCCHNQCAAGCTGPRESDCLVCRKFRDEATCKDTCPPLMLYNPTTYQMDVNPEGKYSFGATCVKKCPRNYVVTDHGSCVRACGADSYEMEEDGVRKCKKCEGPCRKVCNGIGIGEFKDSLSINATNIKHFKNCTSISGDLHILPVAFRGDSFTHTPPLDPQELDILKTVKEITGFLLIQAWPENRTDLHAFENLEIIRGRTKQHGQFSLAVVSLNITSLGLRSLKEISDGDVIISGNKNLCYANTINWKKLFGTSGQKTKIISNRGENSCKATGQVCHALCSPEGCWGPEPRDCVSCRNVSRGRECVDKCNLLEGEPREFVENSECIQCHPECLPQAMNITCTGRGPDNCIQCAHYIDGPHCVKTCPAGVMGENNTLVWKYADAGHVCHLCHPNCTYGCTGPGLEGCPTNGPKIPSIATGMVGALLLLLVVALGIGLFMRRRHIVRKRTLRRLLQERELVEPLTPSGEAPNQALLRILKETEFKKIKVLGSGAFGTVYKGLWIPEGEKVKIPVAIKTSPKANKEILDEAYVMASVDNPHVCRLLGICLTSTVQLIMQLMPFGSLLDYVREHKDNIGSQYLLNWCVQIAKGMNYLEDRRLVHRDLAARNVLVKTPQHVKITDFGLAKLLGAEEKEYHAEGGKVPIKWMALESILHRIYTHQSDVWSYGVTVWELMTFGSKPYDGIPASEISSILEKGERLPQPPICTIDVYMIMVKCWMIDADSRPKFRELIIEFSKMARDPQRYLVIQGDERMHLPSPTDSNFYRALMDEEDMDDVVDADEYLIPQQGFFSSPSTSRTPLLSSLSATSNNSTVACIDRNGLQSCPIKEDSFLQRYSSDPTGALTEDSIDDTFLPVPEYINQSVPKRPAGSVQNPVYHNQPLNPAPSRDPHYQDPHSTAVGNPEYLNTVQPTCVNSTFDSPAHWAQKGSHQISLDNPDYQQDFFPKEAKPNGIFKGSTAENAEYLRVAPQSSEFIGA
# Method in brief: as §19
# [8] = p.o. 10 mg/kg, formulation 5% DMSO/5% Solutol/90% normal saline
# [9] = p.o. 5 mg/kg, formulation differs per row
SMILES,"AUC(0-t) [1, 8] [ng·h/mL]","Cmax [1, 8] [ng/mL]","Tmax [1, 8] [h]","half-life [1, 8] [h]",IC50 ([2]; class symbols) [nM],IC50 [3] [nM],IC50 [4] [nM],IC50 [5] [nM],GI50 ([6]; numeric values) [nM],GI50 ([7]; numeric values) [nM],"AUC(0-t) [1, 9] [ng·h/mL]","Cmax [1, 9] [ng/mL]","Tmax [1, 9] [h]","half-life [1, 9] [h]",IC50 ([2]; numeric values) [nM],GI50 ([6]; class symbols) [nM],GI50 ([7]; class symbols) [nM]
"Cc1cc(Nc2ncc(Cl)c(Nc3ccccc3P(C)(C)=O)n2)ccc1N1CC2(CCC(N(C)C)CC2)C1 [Example 1, (2-((5-chloro-2-((4-(7-(dimethylamino)-2-azaspiro[3.5]nonan-2-yl)-3-methylphenyl)amino)pyrimidin-4-yl)amino)phenyl)dimethylphosphine oxide]",1540,141,1.67,6.53,≤ 2,0.9,43,48.8,6,5.8,–,–,–,–,–,–,–
"Cc1cc(Nc2ncc(Cl)c(Nc3ccccc3P(C)(C)=O)n2)ccc1N1CC2(CCC(NC3CC3)CC2)C1 [Example 4, (2-((5-chloro-2-((4-(7-(cyclopropylamino)-2-azaspiro[3.5]nonan-2-yl)-3-methylphenyl)amino)pyrimidin-4-yl)amino)phenyl)dimethylphosphine oxide]",–,–,–,–,–,1,21,26.9,–,–,1020,71.3,6,6.27,1.5,10 to 50,≤ 10
"Cc1cc(Nc2ncc(Cl)c(Nc3ccccc3P(C)(C)=O)n2)ccc1N1CCC2(CC1)CC(N)C2 [Example 14, (2-((2-((4-(2-amino-7-azaspiro[3.5]nonan-7-yl)-3-methylphenyl)amino)-5-chloropyrimidin-4-yl)amino)phenyl)dimethylphosphine oxide]",–,–,–,–,–,0.31,27,17.5,15.1,13.2,–,–,–,–,1.2,–,–
